In patent US20250002470A1, “NITROGEN-CONTAINING COMPOUND, PREPARATION METHOD THEREFOR AND APPLICATION THEREOF” (ZHEJIANG AIXPLORER BIOTECH CO., LTD., priority 2021, published 2025):
Marks after values point to notes of the source that are not given here.

Tests used:
[1] = system: DSS-induced acute enteritis mouse model; assay: DSS-induced acute enteritis mouse model (body weight, DAI score, colon length); assay type: in vivo, C57BL/6 mice
Method: Grouping and modeling: One day before the start of the experiment, all C57BL/6 mice were ear-labeled and recorded, and the animals with appropriate weight and normal status were selected for grouping (Sham group, vehicle group and embodiment 33 group). 10 animals per group; 3.5% dextran sulfate sodium salt (DSS, MP, molecular weight 36000-50000) prepared with sterile water is loaded into the drinking bottle in the vehicle and the 33 testing groups of rearing cages in the embodiment (100 mL per cage, replace the 3.5% DSS solution after 2-3 days with freshly prepared solution), and the animals in the vehicle and the 33 testing groups of the embodiment are free to drink for 10 consecutive days. The Sham group drank the normal water not containing DSS. Embodiment 33 compound is administered orally BID.
1) Body Weight Change (%)=BWi/BW0×100%, BWi is the average body weight of mice in the group on a given day, BW0 is the average body weight of mice before the start of treatment.
2) DAI score: The Disease Activity Index (DAI) scoring criteria are as follows:
3) Colon length: After the last dose, all animals were euthanized with CO2 and dissected. The entire colon (anus-cecum section) was isolated, moistened with ice-cold saline, smoothed and laid flat. On the dissecting board, without applying external force to stretch, use a digital vernier caliper to measure the length of the colon and record it, and take photos for retention.

IL-1β = IL-1β cytokine in LPS-induced sepsis mouse model; assay type: in vivo, C57BL/6J mice; conditions: for IL-1β: given 30 minutes before LPS (10 mg/kg i.p.), serum 2 hours after LPS
Method: The purpose of this study was to investigate and evaluate the inhibitory effect of the test compound on […] and IL-18 cytokine production in a mouse model of lipopolysaccharide (LPS)-induced sepsis.
6-8 weeks female C57BL/6J mice, randomized, 5 animals in the Naïve group, and the rest of the groups (vehicle group, 15 mg/kg group with embodiment 33 compound, 50 mg/kg group with embodiment 33 compound and 150 mg/kg group with embodiment 33 compound, wherein 15 mg/kg, 50 mg/kg and 150 mg/kg is the dosage of embodiment 33, mg/kg is referred to as mpk) 10 animals per group. Among them, the Naïve group was not stimulated with LPS, and the 10 mice in each group were intraperitoneally injected with LPS (10 mg/kg) to induce sepsis model in the mouse. The vehicle (corresponding to the vehicle group) and the test compound (corresponding to the 15mpk group of Example 33, the 50mpk group of Example 33 and the 150mpk group of Example 33 respectively) were administered 30 minutes before LPS stimulation. 2 hours after LPS stimulation, the mice were euthanized, and whole blood was collected from the heart and placed in EP tubes, left to stand at room temperature for 1 hour, and centrifuged at 8000 rpm for 10 minutes to collect serum for measurement of cytokines IL-10 and IL-18.
For the standard pellet in the IL-10 cytokine CBA kit, put the IL-10 standard pellet into a 15 mL centrifuge tube, add 4 mL of Assay Diluent, and let it stand at room temperature for more than 15 minutes; • After the supernatant sample is melted and mixed evenly, the supernatant is diluted 2 times; • Preparation of standard reagent: Add the diluent Assay Diluent in advance to the 96-well V-shaped bottom plate, 100 μL/well. Add 200 μL of the standard that has been left to stand for 15 minutes into the well plate, and add 100 μL each time to the diluent in sequence. Gradually dilute the standard to 11 gradients (double dilution each time). The 12th hole is used as Blank, 200 μL/well; • Preparation of Capture beads reagent: Take the capture beads in the IL-10 cytokine CBA kit and vortex for 30 seconds. Prepare the Beads as follows: 60 μL IL-10 beads+2440 μL capture beads diluent (60 wells); mix evenly, 50 μL/well, add it to a […] V-bottom plate; shake at 200 g for 5 minutes, and incubate at room temperature for 1 hour; • Preparation of Detection reagent: Take the PE Detection from the IL-10 cytokine CBA kit and vortex for 30 seconds. Prepare the PE as follows: 60 μL IL-10 Detection+2440 μL PE detection diluent; mix evenly. […]

[2] = In vivo pharmacokinetic evaluation in mice (IV and PO); conditions: CD-1 mice
Method: CD-1 mice, after fasting overnight (free drinking), are divided into tail vein (IV) and gavage administration (PO) groups. The tail vein administration group collected 0.1 mL of blood from the orbital venous plexus before administration and 5 minutes, 15 minutes, 0.5 hours, 1 hour, 2 hours, 4 hours, 8 hours, 12 hours, and 24 hours after administration, and sample centrifugation at 4° C. for 5 minutes, and stored at −70° C. for testing. […] The plasma parent drug concentration was determined by LC-MS/MS.

[3] = 50 mpk P.O Bid, 3.5% DSS, day 11, n = 10

Cc1nc(N[C@@H]2CCCC[C@H]2O)nnc1-c1ccc(C(F)(F)F)cc1O [Embodiment 33]
curative effect on animals with DSS-induced acute enteritis (IBD) ([1]; 50mpk P.O Bid): significant curative effect | Day 11 weight change (%) [1, 3]: 88.09% | Rate of body weight loss (%) [1, 3]: 11.91%** | DAI score ([1]; 50 mpk P.O Bid, Day 3): 0.00 | DAI score ([1]; 50 mpk P.O Bid, Day 5): 2.60 ± 0.45 | DAI score ([1]; 50 mpk P.O Bid, Day 7): 4.40 ± 0.6 | DAI score ([1]; 50 mpk P.O Bid, Day 9): 6.20 ± 0.68 | DAI score ([1]; 50 mpk P.O Bid, Day 11): 7.80 ± 0.63 | Colon length ([1]; 50 mpk P.O Bid, after the last dose, n = 10): 58.27 ± 1.48 mm | IL-1β (IL-1β; 15 mpk): 310.1 ± 32.88 | IL-1β (IL-1β; 50 mpk): 213.4 ± 25.66 | IL-1β (IL-1β; 150 mpk): 19.36 ± 5.166 | inhibitory effect on IL-1β compared with the Vehicle group (IL-1β; three dose groups (15, 50, 150 mg/kg)): significant inhibitory effect | F ([2]; PO, 20 mg/kg): 98.0% | AUC ([2]; mouse, plasma, IV, 3 mg/kg): 4600 ng·h/mL | clearance ([2]; mouse, plasma, IV, 3 mg/kg): 10.9 mL/min/kg | half-life ([2]; mouse, plasma, IV, 3 mg/kg): 4.89 h | Vd ([2]; mouse, plasma, IV, 3 mg/kg, read-out: Vss): 2.6 L/kg | AUC ([2]; mouse, plasma, PO, 20 mg/kg): 30000 ng·h/mL | Cmax ([2]; mouse, plasma, PO, 20 mg/kg): 8520 ng/mL | half-life ([2]; mouse, plasma, PO, 20 mg/kg): 3.6 h
